Laboratory results reported in PubChem BioAssay (NCI).
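Each compound was tested at five concentrations against cells in 96-well plates for 48 hours. Abbreviation: GI50, concentration required for 50% inhibition of growth. TGI: total growth inhibition.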

Experiments:
Assay in all cases: NCI anticancer screen, dose series, 48 h
[1] = tested on: NCI/ADR-RES ovarian
[2] = tested on: HOP-62 NSCLC
[3] = tested on: DU-145 prostate
[4] = tested on: NCI-H226 lung
[5] = tested on: RXF 393 renal
[6] = tested on: SN12C renal
[7] = tested on: HCC-2998 colon
[8] = tested on: LOX IMVI melanoma
[9] = tested on: UACC-257 melanoma
[10] = tested on: UO-31 renal
[11] = tested on: OVCAR-8 ovarian
[12] = tested on: HT29 colon
[13] = tested on: K-562 leukemia
[14] = tested on: KM12 colon
[15] = tested on: HCT-116 colon
[16] = tested on: ACHN renal
[17] = tested on: 786-0 renal
[18] = tested on: MOLT-4 leukemia
[19] = tested on: BT-549 breast
[20] = tested on: PC-3 prostate
[21] = tested on: NCI-H460 lung
[22] = tested on: M14 melanoma
[23] = tested on: SW-620 colon
[24] = tested on: HS 578T breast
[25] = tested on: IGROV1 ovarian
[26] = tested on: SF-295 CNS
[27] = tested on: MCF7 breast
[28] = tested on: SNB-75 CNS
[29] = tested on: A498 renal
[30] = tested on: NCI-H522 lung
[31] = tested on: CAKI-1 renal
[32] = tested on: U251 CNS
[33] = tested on: EKVX NSCLC
[34] = tested on: T-47D breast
[35] = tested on: SF-539 CNS
[36] = tested on: SR leukemia
[37] = tested on: MALME-3M melanoma
[38] = tested on: SK-MEL-5 melanoma
[39] = tested on: OVCAR-4 ovarian
[40] = tested on: UACC-62 melanoma
[41] = tested on: SK-MEL-28 melanoma
[42] = tested on: SK-MEL-2 melanoma
[43] = tested on: SNB-19 CNS
[44] = tested on: RPMI-8226 leukemia
[45] = tested on: A549 NSCLC
[46] = tested on: CCRF-CEM leukemia
[47] = tested on: NCI-H23 lung
[48] = tested on: MDA-MB-231 breast
[49] = tested on: COLO 205 colon
[50] = tested on: HL-60(TB) leukemia
[51] = tested on: SF-268 CNS
[52] = tested on: OVCAR-3 ovarian
[53] = tested on: TK-10 renal
[54] = tested on: OVCAR-5 ovarian
[55] = tested on: MDA-MB-435
[56] = tested on: SK-OV-3 ovarian
[57] = tested on: HOP-92 NSCLC
[58] = tested on: HCT-15 colon
[59] = tested on: MDA-N

## CCN(CC)CCCCNc1c2ccccc2[n+](C)c2c1[nH]c1ccccc12
[1]
  GI50: 48.8 µM
  TGI: > 100 µM
[2]
  GI50: 683 nM
  TGI: 6.15 µM
[3]
  GI50: 182 nM
  TGI: 11.5 µM
[4]
  GI50: 202 nM
  TGI: 1.18 µM
[5]
  GI50: 402 nM
  TGI: 2.16 µM
[6]
  GI50: 69.9 nM
  TGI: 6.08 µM
[7]
  GI50: 270 nM
  TGI: 763 nM
[8]
  GI50: 346 nM
  TGI: 2.03 µM
[9]
  GI50: 840 nM
  TGI: 2.4 µM
[10]
  GI50: 3.13 µM
  TGI: > 50.6 µM
[11]
  GI50: 786 nM
  TGI: 19.8 µM
[12]
  GI50: 229 nM
  TGI: 1.09 µM
[13]
  GI50: 379 nM
  TGI: 3.9 µM
[14]
  GI50: 385 nM
  TGI: 4.79 µM
[15]
  GI50: 356 nM
[16]
  GI50: 2270 nM
  TGI: > 47.3 µM
[17]
  GI50: 1290 nM
  TGI: > 26 µM
[18]
  GI50: 269 nM
  TGI: 23.8 µM
[19]
  GI50: 1670 nM
  TGI: 4.15 µM
[20]
  GI50: 355 nM
  TGI: 2.29 µM
[21]
  GI50: 83.7 nM
  TGI: 2.27 µM
[22]
  GI50: 1410 nM
  TGI: 4.64 µM
[23]
  GI50: 395 nM
  TGI: 7.47 µM
[24]
  GI50: 238 nM
  TGI: 0.865 µM
[25]
  GI50: 473 nM
  TGI: 7.4 µM
[26]
  GI50: 542 nM
  TGI: 4.31 µM
[27]
  GI50: 256 nM
  TGI: 3.63 µM
[28]
  GI50: 297 nM
  TGI: 1.27 µM
[29]
  GI50: 613 nM
  TGI: 2.39 µM
[30]
  GI50: 79.6 nM
  TGI: 0.217 µM
[31]
  GI50: 2050 nM
  TGI: 14.4 µM
[32]
  GI50: 238 nM
  TGI: 4.46 µM
[33]
  GI50: 298 nM
  TGI: 3.16 µM
[34]
  GI50: 178 nM
  TGI: 1100 nM
[35]
  GI50: 473 nM
  TGI: 1.74 µM
[36]
  GI50: 373 nM
  TGI: 42.2 µM
[37]
  GI50: 217 nM
  TGI: 0.671 µM
[38]
  GI50: 283 nM
  TGI: 0.976 µM
[39]
  GI50: 345 nM
  TGI: 2.57 µM
[40]
  GI50: 86.8 nM
  TGI: 260 nM
[41]
  GI50: 201 nM
  TGI: 0.539 µM
[42]
  GI50: 310 nM
  TGI: 956 nM
[43]
  GI50: 269 nM
  TGI: 2.03 µM
[44]
  GI50: 255 nM
  TGI: 1.32 µM
[45]
  GI50: 55.8 nM
  TGI: 33.2 µM
[46]
  GI50: 590 nM
  TGI: 3.39 µM
[47]
  GI50: 221 nM
  TGI: 1.07 µM
[48]
  TGI: > 20.3 µM
[49]
  GI50: 189 nM
  TGI: 0.983 µM
[50]
  GI50: 5.69 µM
  TGI: > 31 µM
[51]
  GI50: 209 nM
  TGI: 1.4 µM
[52]
  GI50: 433 nM
  TGI: 3.56 µM
[53]
  GI50: 2520 nM
  TGI: 12.6 µM
[54]
  GI50: 1000 nM
  TGI: 11.5 µM
[55]
  GI50: 600 nM
  TGI: 2.16 µM
[56]
  GI50: 366 nM
  TGI: 3.72 µM
[57]
  TGI: 0.28 µM
[58]
  GI50: 7.15 µM
  TGI: > 70 µM

## CCOP(=O)(OCC)/C(C#N)=C/c1ncc[nH]1
[1]
  TGI: > 100 µM
[2]
  TGI: > 100 µM
[3]
  TGI: > 100 µM
[4]
  TGI: > 100 µM
[5]
  TGI: > 100 µM
[6]
  TGI: > 100 µM
[7]
  TGI: > 100000 nM
[8]
  TGI: > 100 µM
[9]
  TGI: > 100 µM
[10]
  TGI: > 100 µM
[11]
  TGI: > 100 µM
[12]
  TGI: > 100 µM
[13]
  TGI: > 100 µM
[14]
  TGI: > 100 µM
[15]
  TGI: > 100 µM
[16]
  TGI: > 100 µM
[17]
  TGI: > 100 µM
[18]
  TGI: > 100 µM
[19]
  TGI: > 100 µM
[20]
  TGI: > 100 µM
[21]
  TGI: > 100 µM
[22]
  TGI: > 100 µM
[23]
  TGI: > 100 µM
[24]
  TGI: > 100 µM
[26]
  TGI: > 100 µM
[27]
  TGI: > 100 µM
[28]
  TGI: > 100 µM
[59]
  TGI: > 100 µM
[29]
  TGI: > 100 µM
[30]
  TGI: > 100 µM
[31]
  TGI: > 100 µM
[32]
  TGI: > 100 µM
[33]
  TGI: > 100 µM
[35]
  TGI: 72.9 µM
[36]
  TGI: > 100 µM
[37]
  TGI: > 100 µM
[38]
  TGI: > 100 µM
[39]
  TGI: > 100 µM
[40]
  TGI: > 100000 nM
[41]
  TGI: > 100 µM
[42]
  TGI: > 100000 nM
[43]
  TGI: > 100 µM
[44]
  TGI: > 100 µM
[45]
  TGI: > 100 µM
[46]
  TGI: > 100 µM
[47]
  TGI: > 100 µM
[48]
  TGI: > 100 µM
[49]
  TGI: > 100 µM
[50]
  TGI: > 100 µM
[51]
  TGI: > 100 µM
[52]
  TGI: > 100 µM
[54]
  TGI: > 100 µM
[55]
  TGI: > 100 µM
[56]
  TGI: > 100 µM
[57]
  TGI: > 100 µM

## Cc1csc2c(=O)n(C3OC(CO)C(O)C3O)c(=O)[nH]c12 (stereo unspecified)
[1]
  TGI: > 100 µM
[2]
  TGI: > 100 µM
[3]
  TGI: > 100 µM
[4]
  TGI: > 100 µM
[5]
  TGI: > 100 µM
[6]
  TGI: > 100 µM
[8]
  TGI: > 100 µM
[9]
  TGI: > 100 µM
[10]
  TGI: > 100 µM
[11]
  TGI: > 100 µM
[12]
  TGI: > 100 µM
[13]
  TGI: > 100 µM
[14]
  TGI: > 100 µM
[15]
  TGI: > 100 µM
[16]
  TGI: > 100 µM
[17]
  TGI: > 100 µM
[18]
  TGI: > 100 µM
[19]
  TGI: > 100 µM
[20]
  TGI: > 100 µM
[21]
  TGI: > 100 µM
[22]
  TGI: > 100 µM
[23]
  TGI: > 100 µM
[24]
  TGI: > 100 µM
[25]
  TGI: > 100 µM
[26]
  TGI: > 100 µM
[27]
  TGI: > 100 µM
[28]
  TGI: > 100 µM
[59]
  TGI: > 100 µM
[29]
  TGI: > 100 µM
[30]
  TGI: > 100 µM
[31]
  TGI: > 100 µM
[32]
  TGI: > 100 µM
[33]
  TGI: > 100 µM
[35]
  TGI: > 100 µM
[36]
  TGI: > 100 µM
[37]
  TGI: > 100 µM
[38]
  TGI: > 100 µM
[39]
  TGI: > 100 µM
[41]
  TGI: > 100 µM
[43]
  TGI: > 100 µM
[44]
  TGI: > 100 µM
[45]
  TGI: > 100 µM
[46]
  TGI: > 100 µM
[47]
  TGI: > 100 µM
[48]
  TGI: > 100 µM
[49]
  TGI: > 100 µM
[50]
  TGI: > 100 µM
[51]
  TGI: > 100 µM
[52]
  TGI: > 100 µM
[53]
  TGI: > 100 µM
[54]
  TGI: > 100 µM
[55]
  TGI: > 100 µM
[57]
  TGI: > 100 µM
